We go through two compounds from patent publication EP4722212A1, “NOVEL COMPOUND FOR INHIBITING PROTEIN KINASES AND PHARMACEUTICAL COMPOSITION COMPRISING SAME” (Magicbullettherapeutics Co., Ltd., priority 2023, dated 2024).

A value given as a limit tells only on which side of the number the result lay.

Test [1] deals with 22Rv1. The experiment in a line: Cell line inhibition analysis (CCK-8, 72 h). The format is cell-based. Conditions: Homo sapiens; 22Rv1, 72 hours; read-out: Cell growth inhibition GI50 22Rv1. An outline of the steps: (§1)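 Cells attached one day, then treated 72 h at 37 °C with nine 3-fold compound dilutions (final 0-50 µM) or DMSO. Growth read by CCK-8 absorbance at 450 nm after 2 h, medium-blank corrected, with a day-0 plate defining 0% growth; GI50 calculated.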

Test [2] concerns C4-2B. The test can be described thus: Cell line inhibition analysis (CCK-8, 72 h). The format is cell-based. The conditions noted are these: read-out: Cell growth inhibition GI50 C4-2B. An outline of the steps: as §1
The target of test [3] is CDK4/CYCLIN D2 (Homo sapiens, UniProt P11802). The test can be described thus: Kinase panel. The format is biochemical. Conditions: CDK4/CYCLIN D2, 1 µM; read-out: residual enzyme activity. The essentials: (§2)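 Compounds were applied once, at 1 µM, to each kinase of a broad biochemical panel, and remaining enzyme activity was calculated. A kinase counted as inhibited if that remaining activity fell to 40% or below.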
CDK4/CYCLIN D2, sequence (P11802 whole entry, species assumed): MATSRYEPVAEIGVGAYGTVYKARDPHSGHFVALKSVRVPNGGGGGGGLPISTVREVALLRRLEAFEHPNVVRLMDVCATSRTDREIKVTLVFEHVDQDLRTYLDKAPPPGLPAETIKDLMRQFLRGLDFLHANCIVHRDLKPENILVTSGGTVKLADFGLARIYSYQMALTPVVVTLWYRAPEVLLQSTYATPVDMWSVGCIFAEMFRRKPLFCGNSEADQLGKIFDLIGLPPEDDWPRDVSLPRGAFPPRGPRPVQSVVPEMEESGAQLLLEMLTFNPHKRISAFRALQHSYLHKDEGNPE
CDK4/CYCLIN D2, sequence (P30279 whole entry partner, species assumed): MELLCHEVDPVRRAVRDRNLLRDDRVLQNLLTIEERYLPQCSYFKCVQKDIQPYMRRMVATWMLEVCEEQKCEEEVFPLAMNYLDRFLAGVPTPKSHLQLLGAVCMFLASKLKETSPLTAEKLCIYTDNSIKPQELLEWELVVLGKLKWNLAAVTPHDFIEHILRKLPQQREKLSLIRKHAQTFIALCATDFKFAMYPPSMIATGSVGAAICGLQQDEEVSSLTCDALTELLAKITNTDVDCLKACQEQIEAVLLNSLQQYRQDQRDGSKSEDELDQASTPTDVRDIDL

For test [4], the target named is PKMYT1 (Homo sapiens, UniProt Q99640). The test can be described thus: Kinase panel. Type of test: biochemical. Conditions: PKMYT1, 1 µM; read-out: residual enzyme activity. An outline of the steps:
as §2

PKMYT1, sequence (Q99640 whole entry, species assumed): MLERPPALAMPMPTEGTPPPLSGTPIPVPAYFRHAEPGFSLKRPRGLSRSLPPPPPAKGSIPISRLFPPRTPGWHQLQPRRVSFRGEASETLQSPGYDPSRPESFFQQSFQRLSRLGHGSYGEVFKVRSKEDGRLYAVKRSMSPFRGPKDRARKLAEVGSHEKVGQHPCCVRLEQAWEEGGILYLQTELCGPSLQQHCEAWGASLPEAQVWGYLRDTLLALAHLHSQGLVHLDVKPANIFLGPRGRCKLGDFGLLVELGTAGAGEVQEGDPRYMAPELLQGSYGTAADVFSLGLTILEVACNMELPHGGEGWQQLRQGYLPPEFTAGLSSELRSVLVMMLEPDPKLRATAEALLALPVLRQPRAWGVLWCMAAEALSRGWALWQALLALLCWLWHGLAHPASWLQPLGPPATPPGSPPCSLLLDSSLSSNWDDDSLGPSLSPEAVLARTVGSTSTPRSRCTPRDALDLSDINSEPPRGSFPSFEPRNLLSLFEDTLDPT

Turning to `Cc1cn(-c2cc(C(=O)Nc3ccc(C)c(N4Cc5cnc(NC6CC6)nc5C5(CC5)C4=O)c3)cc(C(F)(F)F)c2)cn1` [Compound 8, N-(3-(2'-(cyclopropylamino)-7'-oxo-5'H-spiro[cyclopropane-1,8'-pyrido[4,3-d]pyrimidine]-6'(7'H)-yl)-4-methylphenyl)-3-(4-methyl-1H-imidazol-1-yl)-5-(trifluoromethyl)benzamide], the GI50 in test [1] and in test [2] was under 1 µM in each case. For the same compound, in test [3], the remaining activity at 1 µM was over 40%.
Regarding `Cc1ccc(Nc2ncc3c(n2)C2(CC2)C(=O)N(c2cc(NC(=O)c4cccc(C(F)(F)F)c4)ccc2C)C3)cn1` [Compound 51, N-(4-methyl-3-(2'-((6-methylpyridin-3-yl)amino)-7'-oxo-5'H-spiro[cyclopropane-1,8'-pyrido[4,3-d]pyrimidine]-6'(7'H)-yl)phenyl)-3-(trifluoromethyl)benzamide], the remaining activity at 1 µM in test [4] was over 40%.
